Measurements from patent publication US20250381173A1, “Long-Lasting Anaesthetic Formulation” (BERTIE INTERNATIONAL AB, priority 2022, published 2025).
Several values for one entry are separate records, joined by “and”; a condition that tells them apart may be missing. Equal values may be shown once.

Assays:
[1] = tested on: female rats; experiment: Local anesthesia efficacy test, prick test after one s.c. injection; format: in vivo, Sprague Dawley rats; settings: 0.25 mg/kg s.c.
Description: (§1) In order to evaluate administration of local anesthesia in a sensitivity test in female rats a pilot- and an efficacy study was performed.
(§2) Sprauge Dawley rats (females, 10 weeks) were acquired from Janvier Europe. Rats were housed in the animal facility, Medicon Village, Lund, Sweden. The rats were kept at 12 h light/dark cycles in polystyrene cages (type III cages, 2-3 rats per cage) comprising wood shavings. The rats were fed with standard rodent diet and water ad libitum. The rats were acclimatized for approximately one week before initiation of the experiment. The rats were identified by a marking on the tail with a permanent marker day 1.
Formulation of reference anesthesia Ropivacaine, was prepared in the same way as for the pilot study.
The rats were shaved at the back and habituated to the experimental environment for 30 minutes prior to the testing. The sensitivity test was performed at 6 different time points within 6 hours after administration of the test item (30 min, 1 h, 2 h, 3 h, 4 h, 5 h) by touching each rat with a needle. The rat's reaction in the form of wrinkling of the skin was evaluated by ocular inspection, giving each monitored response a value of 0 (no response) or 1 (response).

[2] = tested on: sciatic nerve; experiment: In vivo test 3: sensitivity test (tweezer), motor and sensor block after s.c. injection close to the sciatic nerve; set-up: species or system Wistar albino rats
Description: Male Wistar albino rats, weighing 200-250 g, obtained from SYLAB Experimental Animals Laboratory, were used in the experiments. The animals were kept in a 12 hour light-12 hour dark light period under standard conditions and fed with standard pellet water (ad libitum). All studies were carried out in accordance with international ethical rules, without abusing animal rights.
Formulations used were the same as in Example 2, with additional storage. The formulations were stored for 7 months at different temperatures. At first, the formulations were stored in the freezer for 6 months. Thereafter there were alterations in temperature storage; the formulations were iteratively stored in room temperature and in the fridge before use.
The compositions were administrated s. c. in one single injection at time 0. The compositions were administrated to a position in close proximity to the sciatic nerve. • Group 1: Ropivacaine 7.5 mg/ml, 1.1-1.2 ml. Total=at least 8.25 mg ropivacaine. This composition is commercial ropivacaine (Ropivacaina Inibsa, injectable solution). • Group 2: Ropivacaine 4 mg/ml, 2 ml, pH 5 (Test 1). Total=8 mg ropivacaine.
The sensitivity test was performed at 9 different time points within 9 hours after administration of the test item (1 h, […], 2 h, 3 h, 4 h, 5 h, 6 h, 7 h, 8 h and 9 h) by touching each rat with a tweezer. The rat's reaction in the form of wrinkling of the skin was evaluated by ocular inspection, giving each monitored response a value of 0 (no response), 0.5 (low response) or 1 (response).

[3] = Impurity analysis: 2,6-dimethylaniline (Impurity H) by UPLC-UV and UPLC-UV-MS; format: physicochemical
Description: Qualitative LC-analyzes were performed on samples from the stage in the formulation procedure after ropivacaine was added. LC analyzes with ultraviolet light (UV) detection were performed on a Thermo Fischer Scientific Vanquish UPLC instrument employing a Waters BEH C18 1.7 um 2.1*150 mm chromatographic column at 0.3 mL/min flow rate and otherwise method according to European pharmacopoeia 11.1, monograph 01/2017:2335 ‘Ropivacaine Hydrochloride Monohydrate’.
LC analyzes with UV and MS detection were carried out on a Waters Acquity UPLC Quattro Micro MS-instrument with electrospray ionisation (ESI) in positive-negative switching mode. The method used was based on monograph 01/2017:2335 as above, however, the mobile phase was changed to a MS-compatible one; instead of phosphate buffer 0.1% NH3/MeCN with gradient elution was used.
One of the impurities of ropivacaine specified in the pharmacopeial monograph Eu Pharm 11.1, 01/2017:2335 as Impurity H, the carcinogenic 2,6-dimethylaniline, was analyzed in prepared formulations by LC-UV and LC-UV-MS against 2,6-dimethylaniline reference material.
Specified Impurity H of ropivacaine of Ph. Eur. 11.1, 01/2017:2335-2,6-dimethylaniline—was not detected (<0.05 area-%), neither in the ropivacaine reference standard nor in the formulated samples of ropivacaine of microwave heated triethanolamine, as analyzed by UPLC-UV (240 nm) and UPLC-UV-MS (Full scan m/z 50-800). As such, it was concluded that 2,6-dimethylaniline is not produced in the treatment of a formulation of the present disclosure.

[4] = tested on: female rats; experiment: Local anesthesia pilot study, prick (sensitivity) test after one s.c. injection; format: in vivo, Sprague Dawley rats; settings: data not shown
Description: as §1, §2
Formulation of reference anesthesia ropivacaine, was prepared such that the pH of the composition and the concentration and dose of ropivacaine where essentially identical to the compositions of the invention. The concentration of Ropivacaine was 5 mg/ml in the formulation and was administered at a dose of 1 mg/kg bodyweight in 2 animals, 0.25 mg/kg bodyweight in 2 animals; and placebo PBS (phosphate buffered saline) in 2 animals. The vehicle and reference anesthesia were administrated s. c. (subcutaneous) in one single injection at time 0.
The rats were shaved at the back and habituated to the experimental environment for 30 minutes prior to the testing. […] The rat's reaction in the form of wrinkling of the skin was evaluated by ocular inspection.

[5] = individual rat, score 0, 0.5 or 1, 0 h
[6] = individual rat, score 0, 0.5 or 1, 1 h
[7] = individual rat, score 0, 0.5 or 1, 2 h
[8] = individual rat, score 0, 0.5 or 1, 3 h
[9] = individual rat, score 0, 0.5 or 1, 4 h
[10] = individual rat, score 0, 0.5 or 1, 5 h
[11] = individual rat, score 0, 0.5 or 1, 6 h
[12] = individual rat, score 0, 0.5 or 1, 7 h

With `CCCN1CCCC[C@H]1C(=O)Nc1c(C)cccc1C` [Ropivacaine, ropivacaine] the “Average value of first response” value ([1]; group of 3 rats) was 1.8 h, the “Prick test response, 0.5 h” value ([1]; individual rat, 0 = no response (anesthesia), 1 = response, 0.5 mg/ml, 0.5 h, 0.25 mg/kg) was 0 (2×) and 1 and the “Prick test response, 1 h” value ([1]; individual rat, 0 = no response (anesthesia), 1 = response, 1 h, 0.25 mg/kg) was 0 (2×) and 1. The “Prick test response, 2 h” value ([1]; individual rat, 0 = no response (anesthesia), 1 = response, 2 h, 0.25 mg/kg) was 1 (2×) and 0, the “Prick test response, 3 h” value ([1]; individual rat, 0 = no response (anesthesia), 1 = response, 3 h) was 1 and the “Prick test response, 4 h” value ([1]; individual rat, 0 = no response (anesthesia), 1 = response, 4 h, 0.25 mg/kg) was 1 (2×) and 0. The “Prick test response, 5 h” value ([1]; individual rat, 0 = no response (anesthesia), 1 = response, 5 h) was 1, the “Loss Motor block, average” value ([2]; group average) was 3.3 h and the “loss of Sensor block, average” value ([2]; group average) was 4.3 h. For the same compound, the “Loss Motor block” value ([2]; individual rat) was 4 h (4×) and 3 h (2×), the “loss of Sensor block” value ([2]; individual rat) was 6 h (2×) and 3 h (2×) and 4 h (2×) and the “Motor Block, test time 0 h” value [2, 5] was 1 (5×) and 0.5. For the same compound, the “Sensor Block, test time 0 h” value [2, 5] was 1, the “Motor Block, test time 1 h” value [2, 6] was 1 (5×) and 0.5 and the “Sensor Block, test time 1 h” value [2, 6] was 1. For the same compound, the “Motor Block, test time 2 h” value [2, 7] was 1 (4×) and 0.5 (2×), the “Sensor Block, test time 2 h” value [2, 7] was 1 and the “Motor Block, test time 3 h” value [2, 8] was 0.5 and 0 (3×) and 1 (2×). For the same compound, the “Sensor Block, test time 3 h” value [2, 8] was 1 (4×) and 0 (2×), the “Motor Block, test time 4 h” value [2, 9] was 0 and the “Sensor Block, test time 4 h” value [2, 9] was 1 and 0 (4×) and 0.5. For the same compound, the “Motor Block, test time 5 h” value [2, 10] was 0, the “Sensor Block, test time 5 h” value [2, 10] was 1 and 0 (2×) and 0.5 and the “Motor Block, test time 6 h” value [2, 11] was 0. The “Sensor Block, test time 6 h” value [2, 11] was 0, the “Motor Block, test time 7 h” value [2, 12] was 0 and the “Sensor Block, test time 7 h” value [2, 12] was 0. The “Impurity H (2,6-dimethylaniline), UPLC-UV-MS” value ([3]; Full scan m/z 50-800) was “Not detected”, the “Impurity H (2,6-dimethylaniline), UPLC-UV” value ([3]; UV 240 nm) was “Not detected” and the “2,6-dimethylaniline (Impurity H) level” value ([3]; not detected, UPLC-UV (240 nm) and UPLC-UV-MS) was less than 0.05 area-%. The “duration of the anesthetic effect” value ([4]; 0.25 mg/kg bodyweight s.c.) was 2 h and the “duration of the anesthetic effect” value ([4]; 1 mg/kg bodyweight s.c.) was 5 h.
